Activity calls are given as the source filed them. No cut-off for these calls is given here.
Key:
[1] = target: T1, CDK8/Cyclin C (Homo sapiens) (UniProt P49336+P24863); test: Hydrophobic-tagging degradation activity at CDK8/Cyclin C in human MDA-MB-468 cells assessed as downregulation of C-terminal RNA polymerase II phosphorylation at serine 5 at 2 to 8 uM incubated for 24 hrs by Western blotting analysis; type: cell-based; conditions: dose 2-8 µM
[2] = target: Cyclin-dependent kinase 19 (Homo sapiens) (UniProt Q9BWU1); test: Hydrophobic-tagging degradation activity at CDK19 in human MDA-MB-468 cells assessed as degradation of CDK19 at 0.625 to 10 uM incubated for 24 hrs by Western blotting analysis; type: cell-based; conditions: dose 0.625-10 µM
Sequence of Cyclin-dependent kinase 19 (Homo sapiens) (Q9BWU1 whole entry): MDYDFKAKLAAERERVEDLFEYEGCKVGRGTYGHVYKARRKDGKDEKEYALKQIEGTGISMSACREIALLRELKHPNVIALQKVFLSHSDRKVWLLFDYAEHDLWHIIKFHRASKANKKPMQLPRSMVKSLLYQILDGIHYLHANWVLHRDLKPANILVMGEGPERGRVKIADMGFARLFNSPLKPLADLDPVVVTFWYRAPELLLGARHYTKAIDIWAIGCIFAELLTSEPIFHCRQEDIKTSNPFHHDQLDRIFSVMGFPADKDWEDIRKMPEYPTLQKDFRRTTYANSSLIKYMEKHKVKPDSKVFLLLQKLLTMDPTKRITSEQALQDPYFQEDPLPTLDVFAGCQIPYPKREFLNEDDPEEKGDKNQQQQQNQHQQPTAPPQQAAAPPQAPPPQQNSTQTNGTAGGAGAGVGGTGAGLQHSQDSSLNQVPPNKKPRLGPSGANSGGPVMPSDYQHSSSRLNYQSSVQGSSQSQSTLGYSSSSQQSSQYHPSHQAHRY

[3] = target: G1/S-specific cyclin-E1 (Homo sapiens) (UniProt P24864); test: PROTAC activity at Cyclin E1 in human MDA-MB-468 cells assessed as degradation of Cyclin E1 at 0.625 to 10 uM incubated for 24 hrs by Western blotting analysis; type: cell-based; conditions: dose 0.625-10 µM
Sequence of G1/S-specific cyclin-E1 (Homo sapiens) (P24864 whole entry): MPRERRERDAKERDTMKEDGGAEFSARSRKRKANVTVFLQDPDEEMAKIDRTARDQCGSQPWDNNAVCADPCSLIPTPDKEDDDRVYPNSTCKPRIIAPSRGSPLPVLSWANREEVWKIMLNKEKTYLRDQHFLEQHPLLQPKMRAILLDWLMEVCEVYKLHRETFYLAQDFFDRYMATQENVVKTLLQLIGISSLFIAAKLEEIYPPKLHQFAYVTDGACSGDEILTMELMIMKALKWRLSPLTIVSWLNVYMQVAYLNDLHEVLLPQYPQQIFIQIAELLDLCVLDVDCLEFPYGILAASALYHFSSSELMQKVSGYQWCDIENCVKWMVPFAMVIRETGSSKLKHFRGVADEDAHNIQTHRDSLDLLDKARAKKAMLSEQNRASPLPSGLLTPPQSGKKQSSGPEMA

HCT-116 [4] = test: Antiproliferative activity against human HCT-116 cells assessed as reduction in cell viability incubated for 4 days by Celltiter glo luminescent assay; type: functional, cell-based; conditions: time 4.0 day
HCT-116 [5] = test: Antiproliferative activity against human HCT-116 cells assessed as inhibition of cell proliferation incubated for 4 days by Celltiter glo luminescent assay; type: functional, cell-based; conditions: HCT-116, 96 h
MDA-MB-231 = test: Antiproliferative activity against human MDA-MB-231 cells assessed as inhibition of cell proliferation incubated for 4 days by Celltiter glo luminescent assay; type: functional, cell-based; conditions: MDA-MB-231, 96 h
[6] = target: T1, CDK8/Cyclin C (Homo sapiens); test: Hydrophobic-tagging degradation activity at CDK8/Cyclin C in human MDA-MB-468 cells assessed as protein degradation at 0.38 to 12 uM incubated for 48 hrs by Western blotting analysis; type: cell-based; conditions: dose 0.38-12 µM
[7] = target: T2, Cyclin-dependent kinase 8 (Homo sapiens, UniProt P49336); test: Hydrophobic-tagging degradation activity at CDK8 in human MDA-MB-468 cells assessed as downregulation of RAP2C protein expression at 5 uM incubated for 12 hrs by DIA-based proteomic analysis; type: cell-based
T2 sequence (P49336 whole entry): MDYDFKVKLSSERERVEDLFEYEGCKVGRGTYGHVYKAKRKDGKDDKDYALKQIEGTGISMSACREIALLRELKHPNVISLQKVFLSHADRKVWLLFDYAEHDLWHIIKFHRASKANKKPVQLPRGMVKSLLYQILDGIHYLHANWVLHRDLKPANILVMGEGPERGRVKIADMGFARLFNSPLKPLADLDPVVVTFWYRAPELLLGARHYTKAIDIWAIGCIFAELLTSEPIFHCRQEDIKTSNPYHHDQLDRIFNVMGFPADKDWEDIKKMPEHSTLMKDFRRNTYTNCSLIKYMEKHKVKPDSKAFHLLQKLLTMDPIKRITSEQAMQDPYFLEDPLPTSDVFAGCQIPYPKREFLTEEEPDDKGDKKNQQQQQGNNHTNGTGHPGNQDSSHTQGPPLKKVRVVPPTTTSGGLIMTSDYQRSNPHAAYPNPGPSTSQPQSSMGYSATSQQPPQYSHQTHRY

[8] = target: T1, CDK8/Cyclin C (Homo sapiens); test: Hydrophobic-tagging degradation activity at CDK8/Cyclin C in human MDA-MB-468 cells assessed as downregulation of MYC gene expression level at 4 uM incubated for 24 hrs by qPT-PCR analysis; type: cell-based
[9] = target: T1, CDK8/Cyclin C (Homo sapiens); test: Hydrophobic-tagging degradation activity at CDK8/Cyclin C in human MDA-MB-468 cells assessed as downregulation of d EAPP expression level at 4 uM incubated for 24 hrs by proteomic analysis; type: cell-based
MDA-MB-468 = test: Inhibition of colony formation in human MDA-MB-468 cells assessed as reduction in cell colony number at 1.25 to 20 uM incubated for 3 days by crystal violet staining based assay; type: functional; conditions: dose 1.25-20 µM, time 3.0 day
[10] = target: T1, CDK8/Cyclin C (Homo sapiens); test: Hydrophobic-tagging degradation activity at CDK8/Cyclin C in human MDA-MB-468 cells assessed as downregulation of TERT gene expression level at 4 uM incubated for 24 hrs by qPT-PCR analysis; type: cell-based
[11] = target: T1, CDK8/Cyclin C (Homo sapiens); test: Hydrophobic-tagging degradation activity at CDK8/Cyclin C in human MDA-MB-468 cells assessed as effect on mRNA expression level at 1.1 to 10 uM by […] analysis; type: cell-based; conditions: dose 1.1-10 µM
Cyclin-C (Homo sapiens) = Cyclin-C (Homo sapiens) (UniProt P24863); test: PROTAC activity at Cyclin C in human MDA-MB-468 cells assessed as degradation of Cyclin C at 0.625 to 10 uM incubated for 24 hrs by Western blotting analysis; type: cell-based; conditions: dose 0.625-10 µM
Sequence of Cyclin-C (Homo sapiens) (P24863 whole entry): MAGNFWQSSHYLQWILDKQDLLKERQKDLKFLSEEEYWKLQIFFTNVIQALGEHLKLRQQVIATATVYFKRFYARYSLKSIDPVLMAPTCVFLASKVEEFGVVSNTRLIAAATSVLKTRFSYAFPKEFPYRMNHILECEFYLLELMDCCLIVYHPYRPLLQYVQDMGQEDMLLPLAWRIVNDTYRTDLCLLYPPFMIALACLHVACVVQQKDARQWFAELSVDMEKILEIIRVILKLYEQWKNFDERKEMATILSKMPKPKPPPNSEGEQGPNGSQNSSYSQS

[12] = target: T1, CDK8/Cyclin C (Homo sapiens); test: Hydrophobic-tagging degradation activity at CDK8/Cyclin C (unknown origin) assessed as protein degradation at 0.625 to 10 uM incubated for 48 hrs by Western blotting analysis; type: protein-complex assay; conditions: dose 0.625-10 µM
[13] = target: Cyclin-dependent kinase 1 (Homo sapiens) (UniProt P06493); test: Hydrophobic-tagging degradation activity at CDK1 in human MDA-MB-468 cells assessed as downregulation of CDK1 mRNA level at 1.1 to 10 uM incubated for 24 hrs by RT-qPCR analysis; type: cell-based; conditions: dose 1.1-10 µM
Sequence of Cyclin-dependent kinase 1 (Homo sapiens) (P06493 whole entry, looked up): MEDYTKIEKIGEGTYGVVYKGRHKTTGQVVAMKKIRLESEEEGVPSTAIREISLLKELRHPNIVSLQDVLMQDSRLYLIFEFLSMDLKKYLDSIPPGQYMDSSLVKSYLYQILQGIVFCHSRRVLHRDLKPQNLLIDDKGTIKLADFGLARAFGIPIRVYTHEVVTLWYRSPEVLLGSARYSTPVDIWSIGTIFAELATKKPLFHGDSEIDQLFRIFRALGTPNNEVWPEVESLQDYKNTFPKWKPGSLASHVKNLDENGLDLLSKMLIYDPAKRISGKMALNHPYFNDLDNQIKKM

[14] = target: Cyclin-dependent kinase 6 (Homo sapiens) (UniProt Q00534); test: PROTAC activity at CDK6 in human MDA-MB-468 cells assessed as degradation of CDK6 at 0.625 to 10 uM incubated for 24 hrs by Western blotting analysis; type: cell-based; conditions: dose 0.625-10 µM
Sequence of Cyclin-dependent kinase 6 (Homo sapiens) (Q00534 whole entry): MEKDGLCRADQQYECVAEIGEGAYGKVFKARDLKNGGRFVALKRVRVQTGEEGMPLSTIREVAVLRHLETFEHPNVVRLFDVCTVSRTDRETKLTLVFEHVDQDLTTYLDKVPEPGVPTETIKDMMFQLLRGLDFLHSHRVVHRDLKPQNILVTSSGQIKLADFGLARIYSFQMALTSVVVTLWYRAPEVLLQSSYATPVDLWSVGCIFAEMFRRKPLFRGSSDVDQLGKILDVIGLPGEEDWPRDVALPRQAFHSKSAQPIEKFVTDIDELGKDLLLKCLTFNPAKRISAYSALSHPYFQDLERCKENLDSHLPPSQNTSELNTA

[15] = target: Cyclin-dependent kinase 9 (Homo sapiens) (UniProt P50750); test: Hydrophobic-tagging degradation activity at CDK9 in human MDA-MB-468 cells assessed as degradation of CDK9 at 0.625 to 10 uM incubated for 24 hrs by Western blotting analysis; type: cell-based; conditions: dose 0.625-10 µM
Sequence of Cyclin-dependent kinase 9 (Homo sapiens) (P50750 whole entry): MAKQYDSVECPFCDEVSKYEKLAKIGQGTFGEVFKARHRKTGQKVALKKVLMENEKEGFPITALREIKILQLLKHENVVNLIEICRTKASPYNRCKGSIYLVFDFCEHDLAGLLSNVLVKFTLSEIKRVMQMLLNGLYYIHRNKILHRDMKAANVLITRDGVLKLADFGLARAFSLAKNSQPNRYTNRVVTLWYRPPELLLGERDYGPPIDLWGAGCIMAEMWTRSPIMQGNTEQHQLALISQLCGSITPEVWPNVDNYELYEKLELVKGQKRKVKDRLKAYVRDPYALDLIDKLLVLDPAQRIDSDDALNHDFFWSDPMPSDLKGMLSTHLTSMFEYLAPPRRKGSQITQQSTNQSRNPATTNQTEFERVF

[16] = target: T1, CDK8/Cyclin C (Homo sapiens); test: Hydrophobic-tagging degradation activity at CDK8/Cyclin C in human MDA-MB-468 cells assessed as downregulation of STAT1 phosphorylation at Ser727 residue at 4 uM incubated for 24 hrs by Western blotting analysis; type: cell-based
[17] = target: T1, CDK8/Cyclin C (Homo sapiens); test: Hydrophobic-tagging degradation activity at CDK8/Cyclin C in human MDA-MB-468 cells assessed as protein degradation at 10 uM incubated for 2 to 20 hrs in presence of cycloheximide by Western blotting analysis; type: cell-based; conditions: time 2-20 hrs, TDE = time-dependent effect
[18] = target: T1, CDK8/Cyclin C (Homo sapiens); test: Hydrophobic-tagging degradation activity at CDK8/Cyclin C in human MDA-MB-468 cells assessed as protein degradation at 5 uM incubated for 2 to 72 hrs by Western blotting analysis; type: cell-based; conditions: time 2-72 hrs, TDE = time-dependent effect
[19] = target: T1, CDK8/Cyclin C (Homo sapiens); test: Hydrophobic-tagging degradation activity at CDK8/Cyclin C in human HCT-116 cells assessed as protein degradation at 0.75 to 20 uM incubated for 48 hrs by Western blotting analysis; type: cell-based; conditions: dose 0.75-20 µM
[20] = target: T1, CDK8/Cyclin C (Homo sapiens); test: Hydrophobic-tagging degradation activity at CDK8/Cyclin C in human MDA-MB-468 cells assessed as protein degradation at 3 uM incubated for 24 hrs in presence of 17-AAG by Western blotting analysis; type: cell-based
[21] = target: T1, CDK8/Cyclin C (Homo sapiens); test: Hydrophobic-tagging degradation activity at CDK8/Cyclin C in human MDA-MB-468 cells assessed as downregulation of […] phosphorylation at Tyr701 residue at 2 to 8 uM incubated for 24 hrs by Western blotting analysis; type: cell-based; conditions: dose 2-8 µM
Cyclin-A2 (Homo sapiens) = Cyclin-A2 (Homo sapiens) (UniProt P20248); test: PROTAC activity at Cyclin A2 in human MDA-MB-468 cells assessed as degradation of Cyclin A2 at 0.625 to 10 uM incubated for 24 hrs by Western blotting analysis; type: cell-based; conditions: dose 0.625-10 µM
Sequence of Cyclin-A2 (Homo sapiens) (P20248 whole entry): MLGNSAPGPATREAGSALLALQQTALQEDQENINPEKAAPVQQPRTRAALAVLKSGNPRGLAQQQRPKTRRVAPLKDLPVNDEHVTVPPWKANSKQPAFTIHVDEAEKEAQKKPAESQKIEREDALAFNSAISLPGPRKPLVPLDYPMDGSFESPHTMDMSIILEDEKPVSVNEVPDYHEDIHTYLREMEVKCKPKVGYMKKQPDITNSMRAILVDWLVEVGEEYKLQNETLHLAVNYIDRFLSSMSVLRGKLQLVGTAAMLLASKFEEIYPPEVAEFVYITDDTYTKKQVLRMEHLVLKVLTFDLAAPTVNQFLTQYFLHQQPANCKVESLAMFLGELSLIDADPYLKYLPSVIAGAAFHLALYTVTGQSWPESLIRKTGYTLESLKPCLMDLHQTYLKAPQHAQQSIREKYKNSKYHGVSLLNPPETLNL

[22] = target: T1, CDK8/Cyclin C (Homo sapiens); test: Hydrophobic-tagging degradation activity at CDK8/Cyclin C in human MDA-MB-468 cells assessed as downregulation of RET gene expression level at 4 uM incubated for 24 hrs by qPT-PCR analysis; type: cell-based
[23] = target: T1, CDK8/Cyclin C (Homo sapiens); test: Hydrophobic-tagging degradation activity at CDK8/Cyclin C in human MDA-MB-468 cells assessed as protein degradation at 1.1 to 10 uM incubated for 24 hrs in presence of MG132 by Western blotting analysis; type: cell-based; conditions: dose 1.1-10 µM
[24] = target: T2, Cyclin-dependent kinase 8; test: Hydrophobic-tagging degradation activity at CDK8 in human MDA-MB-468 cells assessed as downregulation of EAPP protein expression at 5 uM incubated for 12 hrs by DIA-based proteomic analysis; type: cell-based

O=C(Cn1cc(-c2ccc(-c3cncc4ccccc34)cc2)cn1)N1CCN(CCCC23CC4CC(CC(C4)C2)C3)CC1
Activity [1]: Dose-Dependent Effect
Activity [2]: inactive
Activity [3]: inactive
Activity (HCT-116 [4]): Active
IC50 (HCT-116 [5]): 5.87 µM
IC50 (MDA-MB-231): 6.22 µM
Activity [6]: Dose-Dependent Effect
Activity [7]: Active
Activity [8]: Active
Activity [9]: Active
inhibition (MDA-MB-468): Active
Activity [10]: Active
Activity [11]: inactive
Activity (Cyclin-C (Homo sapiens)): Active
Activity [12]: Active
Activity [13]: Active
Activity [14]: inactive
Activity [15]: inactive
Activity [16]: Active
Activity [17]: Tde
Activity [18]: Tde
Activity [19]: Active
Activity [20]: Active
Activity [21]: inactive
Activity (Cyclin-A2 (Homo sapiens)): inactive
Activity [22]: Active
Activity [23]: inactive
Activity [24]: Active
